{
  "source": "patent US20220170028A1",
  "about": "“NOVEL INTERLEUKIN-2 VARIANTS AND BIFUNCTIONAL FUSION MOLECULES THEREOF” (Cugene Inc, priority 2019, published 2022)",
  "key": {"[1]": {"tested_on": "CD8+ T cells", "assay": "CD8+ T cell proliferation, CFSE dilution, human PBMC", "type": "cell-based", "conditions": "5 or 7 days incubation", "protocol": "(§1) Further, P-0511 and P-0512 were tested for their ability to stimulate NK and CD8+ T cells proliferation in comparison with the wild type and benchmark molecules. Intracellular fluorescent label carboxyfluorescein diacetate succinimidyl ester (CFSE) method was utilized. Briefly, human PBMC (1×10^5 cells/well) were labeled with CFSE, plated onto 96-well plates, and incubated with increasing concentrations of different IL-2 compounds. Cells were then harvested after 5 or 7 days of incubation and stained with either anti-CD56-APC antibody for NK cells or anti-CD8-APC antibody for CD8+ T cells; and analyzed by flow cytometry. Data are expressed as a percent of divided cells and illustrated in FIG. 10A for CD8+ T cell proliferation and FIG. 10B for NK cell proliferation."}, "[2]": {"tested_on": "STAT5 phosphorylation in CD8+ T cells", "assay": "STAT5 phosphorylation in CD8+ T cells, human PBMC", "type": "cell-based", "source_text": "The Stat5 phosphorylation activity on other responder cells than CD4+ T cell subsets, including CD8+T and NK, by P-0511 was compared to P-0531, the S125I equivalent of wild-type P-0250. […] IL-2 receptors expressed on CD4+ Tconv, CD8+T and NK cells are primarily dimeric IL-2Rs, comprising IL-2R6 and γc."}, "[3]": {"assay": "Aggregate content by size-exclusion chromatography after Protein A purification", "type": "physicochemical", "conditions": "Isoleucine-125 constructs; after MabSelectSure", "protocol": "For affinity chromatography each supernatant was loaded on a HiTrap MabSelectSure column (CV=5 mL, GE Healthcare) equilibrated with 25 ml phosphate buffered saline, pH 7.2 (ThermoFisher). Unbound protein was removed by washing with 5 column volumes PBS, pH 7.2 and target protein was eluted with 25 mM sodium citrate, 25 mM sodium chloride, pH 3.2. Protein solution was neutralized by adding 3% of 1 M Tris pH 10.2. Ion exchange chromatography or mix-mode chromatography, including but not limited to CaptoMMC (GE Healthcare), ceramic hydroxyapatite, or ceramic fluoroapatite (Bio-Rad) was also utilized to polish the Protein A material as needed. Target protein was concentrated with an Amicon®Ultra-15 concentrator 10 KDa NMWC (Merck Millipore Ltd.)\nThe purity and molecular weight of the purified constructs were analyzed by SDS-PAGE with and in the absence of a reducing agent and staining with Coomassie (Imperial® Stain). The NuPAGE® Pre-Cast gel system (4-12% or 8-16% Bis-Tris, ThermoFisher) was used according to the manufacturer's instructions. The protein concentration of purified protein samples was determined by measuring the UV absorbance at 280 nm (Nanodrop Spectrophotometer, ThermoFisher) divided by the molar extinction coefficient calculated on the basis of the amino acid sequence. The aggregate content of the constructs was analyzed on an Agilent 1200 high-performance liquid chromatography (HPLC) system. Samples were injected onto an AdvanceBio size-exclusion column (300 Å, 4.6×150 mm, 2.7 μm, LC column, Agilent) using 150 mM sodium phosphate, pH 7.0 as the mobile phase at 25° C.\nS125I substitution was thus introduced into a number of IL-2 variant Fc fusion molecules. The constructs harboring Ile-125 substitution in IL-2 were expressed using the same vector and in the same culturing conditions as their Ser-125 counterparts and purified using MabSelectSure. The expression level in mg/L and purity assessed by SEC chromatography in aggregation % of exemplary molecules are summarized in Table 6. The two molecules in the same row of Table 6 share the same other amino acid substitution(s) and differ only at residue 125 with either serine or isoleucine. As an example, the SEC chromatogram and SDS-PAGE pictures of P-0447 (SEQ ID NO: 173) and its Ile-125 counterpart P-0511 (SEQ ID NO: 213) were further illustrated in FIGS. 1D and 1E."}, "[4]": {"tested_on": "NK cells", "assay": "NK cell proliferation, CFSE dilution, human PBMC", "type": "cell-based", "conditions": "5 or 7 days incubation", "protocol": "as §1"}, "[5]": {"tested_on": "Treg cells", "assay": "Treg proliferation and expansion in mice after a single s.c. injection of bifunctional constructs (Example 17)", "type": "in vivo, mouse", "conditions": "15 nmol/kg single s.c., C57/BL6 mice", "protocol": "IL-2 variant tocilizumab bifunctional proteins P-0536, P-0546, P-0559, and P-0560 along with IL-2 variant Fc fusion protein P-0511 were administered to mice, and their ability to preferentially proliferate and expand regulatory T cells (CD4+CD25+FoxP3+ T cells) over effector T cells and NK cells were determined in vivo.\nFemale C57/BL6 mice (7-week old) were received from Charles River Laboratory and acclimated in house for at least 7 days before the study. Vehicle (PBS) and 15 nmol/kg each test compounds were subcutaneously administered to mice on day 0. Peripheral blood samples were collected into heparin-treated tubes on days 2, 4 and 8 post-treatment. Each group contained 5 mice and baseline blood was collected 3 days prior to the treatment (day −3)."}, "[6]": {"tested_on": "STAT5 phosphorylation in CD4+ Tconv cells", "assay": "STAT5 phosphorylation in CD4+ Tconv cells, human PBMC assay by FACS", "type": "cell-based", "source_text": "Single amino acid substitutions were introduced to IL-2 at positions corresponding to amino acids interacting with receptor subunit(s) β or γ or βγ. These substitutions were aimed to reduce IL-2 signaling capacity through the intermediate affinity IL-2Rβγ complex and confer signaling specificity from the high affinity IL-2Rαβγ. IL-2 variants containing single amino acid substitutions were examined for their ability to differentially stimulate STAT5 phosphorylation in CD4 positive Treg and Tconv cells. STAT5 is known to be involved in the downstream signaling cascade upon IL-2 binding to the transmembrane IL-2 receptors. The phosphorylation of STAT5 in defined lymphocyte subpopulations was measured using fresh human peripheral blood mononuclear cells (PBMC) and the forkhead transcription factor FOXP3 was used to identify the Treg population in FACS analysis.\nBriefly, human PBMC were isolated by Ficoll-Hypaque centrifugation from the buffy coat of a healthy donor. PBMC were starved in serum-free MACS buffer at 4° C. for 1 hour. 2×10^5 PBMC were then treated with serial dilutions of test compounds for 30 min at 37° C. Cells were fixed and permeabilized with Foxp3/Transcription Factor Staining Buffer Set (EBIO) by incubating with 1× Foxp3 fixation/permeabilization working solution for 30 minutes and washing with 1× permeabilization buffer. Cells were additionally fixed with Cytofix buffer and permeabilized with Perm Buffer III (BD Biosciences) and then washed. After blocking Fc receptors by adding human TruStain FcX (1:50 dilution), cells were stained with a mixture of anti-CD25-PE, anti-FOXP3-APC, anti-pSTAT5-FITC, and anti-CD4-PerCP-Cy5.5 antibodies at concentrations recommended by the manufacturer for 45 minutes at room temperature. Cells were collected by centrifugation, washed, resuspended in FACS buffer, and analyzed by flow cytometry. The flow cytometry data was gated into CD4+/Foxp3+/CD25^high and CD4+/Foxp3−/CD25^low groups for the Treg and CD4 conventional T cell subsets, respectively. Data are expressed as a percent of pStat5 positive cells in gated population."}},
  "data": [
    {"substance": "P-0511: IL-2 L19H/S125I/Q126E Fc fusion, SEQ ID NO: 213", "values": [
      {"measurement": "potency in stimulating CD8+ T cell proliferation (in words)", "setting": "[1]", "value": "on par with Benchmark-3"},
      {"measurement": "STAT5 phosphorylation activity in CD8+ T cells (in words)", "setting": "[2]", "value": "nearly completely abolished"},
      {"measurement": "Aggregation % (SEC)", "setting": "[3]", "value": 0.7, "unit": "%"},
      {"measurement": "potency in stimulating NK cell proliferation (in words)", "setting": "[4]", "value": "on par with Benchmark-3"},
      {"measurement": "potency in inducing Treg cell proliferation and expansion in vivo (in words)", "setting": "[5]", "value": "comparable in vivo Treg stimulation efficacy as P-0560"},
      {"measurement": "STAT5 phosphorylation activity in CD4+ Tconv cells (in words)", "setting": "[6]", "value": "nearly completely abolished"}
    ]}
  ]
}
